Data on 12 molecules can be found in US12195466B2, “Polyproline mimetics of proline-derived module-15” (Forschungsverbund Berlin e.V., priority 2018, dated 2025).

The target of series [1] is T1, EnaH-EVH1 domain (Homo sapiens (Human), UniProt Q8N8S7). Briefly: Binding affinity to the EnaH-EVH1 domain by fluorescence titration (FT). The note with it: for Kd / FT ΔG^0 (free energy): EnaH-EVH1 domain. The method, then: (§1) The binding data of the ligands to the domain was determined by means of isothermal titration calorimetry (ITC) or fluorescence titration (FT) and presented in the form of the dissociation constant (Kd) or the free energy (AGO). A stronger binding of the ligand to the domain is expressed by a smaller Kd value or a correspondingly more negative AGO value. The relationship between the two parameters is shown in equation (a): […]
T1 sequence (Q8N8S7 1-111): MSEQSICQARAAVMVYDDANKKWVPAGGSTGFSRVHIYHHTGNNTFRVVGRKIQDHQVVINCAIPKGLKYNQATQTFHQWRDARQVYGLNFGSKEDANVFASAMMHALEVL

In the next series the test system is Ena/VASP-EVH1 domain. The note with it: cited from earlier work.
A further series addresses EVL-EVH1 (Homo sapiens (Human), UniProt Q9UI08). Conditions: cited from earlier work.
The target in another series is Ena-EVH1 (Homo sapiens (Human), UniProt Q8N8S7). The note with it: cited from earlier work.
Ena-EVH1, sequence (Q8N8S7 1-111): as above
The target in the next series is VASP-EVH1 (Homo sapiens (Human), UniProt P50552). The note with it: cited from earlier work.
VASP-EVH1, sequence (P50552 2-113): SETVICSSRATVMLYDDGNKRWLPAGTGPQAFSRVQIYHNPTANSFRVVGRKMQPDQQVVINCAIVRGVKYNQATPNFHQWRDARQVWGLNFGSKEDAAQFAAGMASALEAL
The next series deals with VASP (Homo sapiens (Human), UniProt P50552). The note with it: cited from earlier work.
VASP, sequence (P50552 whole entry, species assumed): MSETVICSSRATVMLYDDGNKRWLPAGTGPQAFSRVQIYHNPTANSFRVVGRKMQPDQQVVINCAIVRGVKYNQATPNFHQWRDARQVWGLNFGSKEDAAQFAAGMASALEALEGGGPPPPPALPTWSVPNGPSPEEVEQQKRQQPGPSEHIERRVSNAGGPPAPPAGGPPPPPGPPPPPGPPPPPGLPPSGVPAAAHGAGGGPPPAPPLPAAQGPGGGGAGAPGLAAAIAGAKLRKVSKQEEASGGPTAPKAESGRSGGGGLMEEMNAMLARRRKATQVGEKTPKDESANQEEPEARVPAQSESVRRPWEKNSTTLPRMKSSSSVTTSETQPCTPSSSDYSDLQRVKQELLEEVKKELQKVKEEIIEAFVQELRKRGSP
In series [2] the test system is highly metastatic colorectal and breast cancer cells. Conditions: cited from earlier work.
For series [3] the following is noted: esterification of the free acid 43; cited from earlier work.
Another series can be described thus: Cell permeability. It is filed as in vitro ADME. The note with it: comparison among derivatives 44, 242 and 113.
Another series is described as follows: Metabolic stability. It is filed as in vitro ADME. Conditions: comparison among derivatives 44, 242 and 113.
For series [4], the target named is T1, EnaH-EVH1 domain. Briefly: Binding affinity to the EnaH-EVH1 domain by isothermal titration calorimetry (ITC). Conditions: standard errors in brackets. The procedure: as §1
For orientation: ITC needs no label: the signal is the heat of the interaction.

[5] abbreviates: fluorescence titration, Table 3, read-out: KD.

EVL-EVH1, sequence (Q9UI08 1-112): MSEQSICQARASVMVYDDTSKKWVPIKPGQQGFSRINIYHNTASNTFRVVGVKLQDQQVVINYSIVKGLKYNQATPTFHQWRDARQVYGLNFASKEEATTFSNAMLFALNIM

By Kd is commonly meant the constant that tells how readily two partners part at equilibrium. For `COC(=O)CN1C(=O)[C@@H]2[C@@H](C=C[C@H]1CC(C)C)CCN2C(=O)[C@@H]1CC[C@H]2C=C[C@]3(CCCN3C(=O)[C@H](Cc3ccccc3Cl)NC(C)=O)C(=O)N21` [Ac-[2Cl-Phe]-[ProM-2]-[ProM-17]-OMe], the Kd on EnaH-EVH1 domain [1] (setting [5]) is 540 nM.
Ac-SFEFPPPPTEDEL-NH2 [Ligand 40]: the “binding to the Ena/VASP-EVH1 domain (range in words)” value in the series on Ena/VASP-EVH1 domain is on record as “micromolar range”.
Regarding “Ac-[L-2CI-F]-[ProM-2]-[ProM-1]-OH [Ligand 43]”, the “increased binding affinity compared to the natural peptide 42” value is given as 180 fold at EVL-EVH1, 180 fold on Ena-EVH1 and 280 fold at VASP-EVH1.
Consider `CCC[C@@H]1C=C[C@H]2CCN(C(=O)[C@@H]3CC[C@H]4C=C[C@]5(CCCN5C(=O)[C@H](Cc5ccccc5Cl)NC(C)=O)C(=O)N43)[C@@H]2C(=O)N1CC(=O)OC` [Ac-[2Cl-Phe]-[ProM-2]-[ProM-21]-OMe], for which the Kd at EnaH-EVH1 domain [1] (setting [5]) was 260 nM.
With `CCOC(=O)[C@@H]1CC[C@@H]2C=C[C@H]3CCN(C(=O)[C@@H]4CC[C@H]5C=C[C@]6(CCCN6C(=O)[C@H](Cc6ccccc6Cl)NC(C)=O)C(=O)N54)[C@@H]3C(=O)N21` [Ligand 44, Ac-[L-2Cl—F]-[ProM-2]-[ProM-1]-OEt, reference compound], the “FT ΔG^0 (free energy)” value at EnaH-EVH1 domain [1] (standard errors in brackets) is given as −30.8 (0.2) kJ/mol. The “delocalization of VASP from focal adhesions and leading edge” value on VASP is “delocalizes the protein VASP from focal adhesions”. Further, the “motility of cancer cells” value in [2] is reported as “drastically reduces the motility”. Further, in series [3], the cell permeability entry was “cell-permeable”. Besides, the cell permeabilities entry in the series “Cell permeability” is given as “almost identical”. Also, the metabolic stabilities entry in the series “Metabolic stability” is “almost identical”.
Molecule `CC(=O)N[C@@H](Cc1ccccc1Cl)C(=O)N1CCC[C@]12C=C[C@@H]1CC[C@@H](C(=O)N3CC[C@@H]4C=C[C@H]5CC[C@@H](C(N)=O)N5C(=O)[C@H]43)N1C2=O` [Ligand 113, Ac-[L-2Cl—F]-[ProM-2]-[ProM-1]-NH2] registered an equilibrium dissociation constant (Kd) at EnaH-EVH1 domain [4] of 7000 nM. In “Cell permeability”, the cell permeabilities entry is “almost identical”. Besides, the metabolic stabilities result in the series “Metabolic stability” is on record as “almost identical”.
For `COC(=O)CN1C(=O)[C@@H]2[C@@H](C=C[C@H]1CC(C)C)CCN2C(=O)[C@@H]1CC[C@@H]2C=C[C@H]3CCN(C(=O)[C@H](Cc4ccccc4Cl)NC(C)=O)[C@@H]3C(=O)N21` [Ac-[2Cl-Phe]-[ProM-1]-[ProM-17]-OMe], the Kd at EnaH-EVH1 domain [1] (setting [5]) came out at 2200 nM.
As to `CCC[C@@H]1C=C[C@H]2CCN(C(=O)[C@@H]3CC[C@@H]4C=C[C@H]5CCN(C(=O)[C@H](Cc6ccccc6Cl)NC(C)=O)[C@@H]5C(=O)N43)[C@@H]2C(=O)N1CC(=O)OC` [Ac-[2Cl-Phe]-[ProM-1]-[ProM-21]-OMe], the Kd at EnaH-EVH1 domain [1] (setting [5]) is 2100 nM.
The same measure, in the same setting: the same measure for `CC[C@@H]1C=C[C@H]2CCN(C(=O)[C@@H]3CC[C@@H]4C=C[C@H]5CCN(C(=O)[C@H](Cc6ccccc6Cl)NC(C)=O)[C@@H]5C(=O)N43)[C@@H]2C(=O)N1CC(=O)OC` [Ac-[2Cl-Phe]-[ProM-1]-[ProM-15]-OMe]: 900 nM.
On to `CCOC(=O)[C@@H]1C[C@@H](C)[C@@H]2C=C[C@H]3CCN(C(=O)[C@@H]4CC[C@H]5C=C[C@]6(CCCN6C(=O)[C@H](Cc6ccccc6Cl)NC(C)=O)C(=O)N54)[C@@H]3C(=O)N12` [Ligand 251, Ac-[L-2Cl—F]-[ProM-2]-[ProM-9]-OEt, reference compound], for which, on EnaH-EVH1 domain [1] (standard errors in brackets), the “FT ΔG^0 (free energy)” value is given as −36.6 (0.3) kJ/mol.
Take `CC[C@@H]1C=C[C@H]2CCN(C(=O)[C@@H]3CC[C@H]4C=C[C@]5(CCCN5C(=O)[C@H](Cc5ccccc5Cl)NC(C)=O)C(=O)N43)[C@@H]2C(=O)N1CC(=O)OC` [Ligand 247, Ac-[L-2Cl—F]-[ProM-2]-[R,S,R-Gly-ProM-15]-OMe]: the dissociation constant (Kd) at EnaH-EVH1 domain [1] (setting [5]) is 470 nM; at EnaH-EVH1 domain [1] (standard errors in brackets, read-out: FT Kd) it was 470 nM. The “FT ΔG^0 (free energy)” value on EnaH-EVH1 domain [1] (standard errors in brackets) is recorded as −36.1 (0.1) kJ/mol. Also, the “gain in affinity by a factor” value at EnaH-EVH1 domain [1] (compared with the ProM-1-based predecessor ligands 44 and 242) was 9-10.
As for `COC(=O)[C@@H]1CC[C@@H]2C=C[C@H]3CCN(C(=O)[C@@H]4CC[C@H]5C=C[C@]6(CCCN6C(=O)[C@H](Cc6ccccc6Cl)NC(C)=O)C(=O)N54)[C@@H]3C(=O)N21` [Ligand 242, Ac-[L-2Cl—F]-[ProM-2]-[ProM-1]-OMe], the “FT ΔG^0 (free energy)” value on EnaH-EVH1 domain [1] (standard errors in brackets) was −30.6 (0.4) kJ/mol. Besides, in the series “Cell permeability”, the cell permeabilities result was “almost identical”. In addition, the metabolic stabilities entry in the series “Metabolic stability” is reported as “almost identical”.
